Source: US20180369230A1, “TARGETED SELECTION OF PATIENTS FOR TREATMENT WITH SPECIFIC CORTISTATIN DERIVATIVES” (President and Fellows of Harvard College, priority 2015, published 2018)

Assays:
Experiment in all cases: Cellular proliferation assay
Type in all cases: cell-based
K562 = test system: K562
Procedure: (§1) All suspension cells were plated (96-well) in triplicate at 5,000-30,000 cells per well for testing (n=3). Viable cell number was estimated after 3, 7 and 10 days by counting viable cells from one vehicle well, generating a cell dilution series, transferring […] per well in duplicate to a 384-well plate, and performing a linear regression to CellTiter-Glo (Promega) response (SPECTRAmax M3, Molecular Devices). Cells from all wells were also fourfold diluted in media and transferred in duplicate for CellTiter-Glo measurement. On days 3 and 7, an equal volume for all wells was split-back with fresh media and compound, such that the resulting cell density for the vehicle well matched the initial seeding density. For days 7 and 10, estimated cell number represents the split-adjusted theoretical cell number. HCT116 were plated (96-well) in triplicate at 250 cells per well. Cells were incubated in the presence of vehicle, 1 μM paclitaxel, or compound. On day 7, CellTiter-Blue (Promega) response was measured and values were normalized to vehicle (100% growth) and paclitaxel (0% growth). For growth assays with inhibitors, n=3 for each concentration with two independent experiments.

[1] = test system: megakaryocytic cell lines; conditions: read-out: 50% maximal growth inhibitory concentrations (GI50s); 5 out of 5 megakaryocytic cell lines tested
Procedure: as §1

TF-1 = test system: TF-1
Procedure: as §1

HCT116 = conditions: Colorectal, β-catenin
Procedure: as §1

HEL = test system: HEL
Procedure: as §1

ALL-SIL = conditions: T-ALL, TLX1 overexpression
Procedure: as §1

GRANTA 519 = conditions: Mantle Cell Lymphoma
Procedure: as §1

ARH-77 = conditions: MM/PCL
Procedure: as §1

Cortistatin A
IC50 (K562; K562 (BCR-Abl), erythroleukemia, 10-day treatment, read-out: G150 after 10 days of treatment): > 1000 nM | GI50 (K562; K562, CML/Erythroleukemia, BCR-ABL): > 1000 nM | IC50 [1]: < 10 nM | IC50 (TF-1; TF-1 (EpoR), erythroleukemia, 10-day treatment, read-out: G150 after 10 days of treatment): 350 nM | GI50 (TF-1; TF-1, AML/Erythroleukemia, EpoR): 350 nM | GI50 (HCT116): > 1000 nM | IC50 (HEL; HEL (JAK2V617F), erythroleukemia, 10-day treatment, read-out: G150 after 10 days of treatment): > 1000 nM | GI50 (HEL; HEL, AML/Erythroleukemia, JAK2V617F): > 1000 nM | GI50 (ALL-SIL): 2 nM | GI50 (GRANTA 519): 400 nM | GI50 (ARH-77): 16 nM
